Assay results: patent US8754226B2, “Piperidinyl-substituted lactams as GPR119 modulators” (Array BioPharma Inc., priority 2010, dated 2014)

Test system: modified version of the GPR119 receptor (94% identity to human receptor)
Assay: cAMP production assay (LANCE cAMP kit, TR-FRET) in HEK-293 cells
Type: cell-based
Settings: for cAMP production in HEK-293 cells: HEK-293 cells stably expressing modified GPR119, test compounds 0.2 nM to 10 μM, one-hour incubation at ambient temperature; for Fold over baseline: increase in cAMP relative to basal levels, agonist activity if 1.5-fold or greater
Summary of the method: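 Doxycycline-induced (1 μg/mL, overnight) HEK-293 cells expressing modified GPR119 were thawed, 2000 cells/well, and exposed to compounds (0.2 nM-10 μM final, 0.5% DMSO) for 1 h at ambient temperature in HBSS/HEPES/BSA. cAMP was measured by LANCE TR-FRET against a standard curve. Agonism was defined as ≥1.5-fold over basal.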

CS(=O)(=O)c1cc(F)c(N[C@H]2CCN(C3CCN(c4ncc(C(F)(F)F)cc4Cl)CC3)C2=O)cc1F [Example 111, (S)-1-(1-(3-chloro-5-(trifluoromethyl)pyridin-2-yl)piperidin-4-yl)-3-(2,5-difluoro-4-(methylsulfonyl)phenyl-amino)pyrrolidin-2-one]
cAMP production in HEK-293 cells: 37.9 nmol
Fold over baseline: 3.0

CS(=O)(=O)c1ccc(N[C@H]2CCN(C3CCN(c4ccc(C#N)cn4)CC3)C2=O)c(F)c1 [Example 112, (S)-6-(4-(3-(2-fluoro-4-(methylsulfonyl)phenyl-amino)-2-oxopyrrolidin-1-yl)piperidin-1-yl)nicotinonitrile]
cAMP production in HEK-293 cells: 22.5 nmol
Fold over baseline: 1.7

CS(=O)(=O)c1cc(F)c(N[C@H]2CCN(C3CCN(c4ncc(Cl)cc4Cl)CC3)C2=O)cc1F [Example 113, (S)-1-(1-(3,5-dichloropyridin-2-yl)piperidin-4-yl)-3-(2,5-difluoro-4-(methylsulfonyl)phenyl-amino)pyrrolidin-2-one]
cAMP production in HEK-293 cells: 29.1 nmol
Fold over baseline: 2.1

CS(=O)(=O)c1ccc(N[C@H]2CCN(C3CCN(c4ncc(C(F)(F)F)cc4F)CC3)C2=O)c(F)c1 [Example 114, (S)-3-(2-fluoro-4-(methylsulfonyl)phenyl-amino)-1-(1-(3-fluoro-5-(trifluoromethyl)pyridin-2-yl)piperidin-4-yl)pyrrolidin-2-one]
cAMP production in HEK-293 cells: 17.7 nmol
Fold over baseline: 3.8

CS(=O)(=O)c1ccc(N[C@H]2CCN(C3CCN(c4ncc(Cl)cc4F)CC3)C2=O)c(F)c1 [Example 115, (S)-1-(1-(5-chloro-3-fluoropyridin-2-yl)piperidin-4-yl)-3-(2-fluoro-4-(methylsulfonyl)phenyl-amino)pyrrolidin-2-one]
cAMP production in HEK-293 cells: 15.4 nmol
Fold over baseline: 3.8

CS(=O)(=O)c1ccc(N[C@H]2CCN(C3CCN(c4ncc(Cl)cc4C#N)CC3)C2=O)c(F)c1 [Example 116, (S)-5-chloro-2-(4-(3-(2-fluoro-4-(methylsulfonyl)phenyl-amino)-2-oxopyrrolidin-1-yl)piperidin-1-yl)nicotinonitrile]
cAMP production in HEK-293 cells: 10.2 nmol
Fold over baseline: 2.1

CS(=O)(=O)c1cc(F)c(N[C@H]2CCN(C3CCN(c4ncc(C(F)(F)F)cc4F)CC3)C2=O)c(F)c1 [Example 117, (S)-3-(2,6-difluoro-4-(methylsulfonyl)phenyl-amino)-1-(1-(3-fluoro-5-(trifluoromethyl)pyridin-2-yl)piperidin-4-yl)pyrrolidin-2-one]
cAMP production in HEK-293 cells: 31.1 nmol
Fold over baseline: 4.0

CS(=O)(=O)c1ccc(N[C@@H]2CCN(C3CCN(c4cnc(Cl)cn4)CC3)C2=O)c(F)c1 [Example 118, (R)-1-(1-(5-chloropyrazin-2-yl)piperidin-4-yl)-3-(2-fluoro-4-(methylsulfonyl)phenyl-amino)pyrrolidin-2-one]
cAMP production in HEK-293 cells: 40.6 nmol
Fold over baseline: 3.4

CS(=O)(=O)c1ccc(N[C@H]2CCN(C3CCN(c4ncc(C(F)(F)F)cc4Cl)CC3)C2=O)cn1 [Example 119, (S)-1-(1-(3-chloro-5-(trifluoromethyl)pyridin-2-yl)piperidin-4-yl)-3-(6-(methylsulfonyl)pyridin-3-ylamino)pyrrolidin-2-one]
cAMP production in HEK-293 cells: 16.3 nmol
Fold over baseline: 3.3

Cc1cc(N[C@H]2CCN(C3CCN(c4ncc(Cl)cc4F)CC3)C2=O)cnc1S(C)(=O)=O [Example 120, (S)-1-(1-(5-chloro-3-fluoropyridin-2-yl)piperidin-4-yl)-3-(5-methyl-6-(methylsulfonyl)pyridin-3-ylamino) pyrrolidin-2-one]
cAMP production in HEK-293 cells: 18.6 nmol
Fold over baseline: 3.8

Cc1cc(S(C)(=O)=O)ncc1N[C@H]1CCN(C2CCN(c3ncc(Cl)cc3F)CC2)C1=O [Example 121, (S)-1-(1-(5-chloro-3-fluoropyridin-2-yl)piperidin-4-yl)-3-(4-methyl-6-(methylsulfonyl)pyridin-3-ylamino) pyrrolidin-2-one]
cAMP production in HEK-293 cells: 10.6 nmol
Fold over baseline: 2.5

Cc1cc(S(C)(=O)=O)ncc1N[C@H]1CCN(C2CCN(c3ncc(Cl)cc3C#N)CC2)C1=O [Example 122, (S)-5-chloro-2-(4-(3-(4-methyl-6-(methylsulfonyl)pyridin-3-ylamino)-2-oxopyrrolidin-1-yl)piperidin-1-yl) icotinonitrile]
cAMP production in HEK-293 cells: 6.5 nmol
Fold over baseline: 1.5

Cc1cc(S(C)(=O)=O)ncc1N[C@H]1CCN(C2CCN(c3cnc(Cl)cn3)CC2)C1=O [Example 123, (S)-1-(1-(5-chloropyrazin-2-yl)piperidin-4-yl)-3-(4-methyl-6-(methylsulfonyl)pyridin-3-ylamino) pyrrolidin-2-one]
cAMP production in HEK-293 cells: 15.8 nmol
Fold over baseline: 3.5

O=C1[C@@H](Nc2ccc(S(=O)(=O)C3CC3)nc2)CCN1C1CCN(c2cnc(Cl)cn2)CC1 [Example 124, (S)-1-(1-(5-chloropyrazin-2-yl)piperidin-4-yl)-3-(6-(cyclopropylsulfonyl)pyri-din-3-ylamino)pyrrolidin-2-one]
cAMP production in HEK-293 cells: 14.1 nmol
Fold over baseline: 3.6

Cc1cc(S(C)(=O)=O)ncc1N[C@H]1CCN(C2CCN(c3ncc(Cl)cc3Cl)CC2)C1=O [Example 125, (S)-1-(1-(3,5-dichloro-pyridin-2-yl)piperidin-4-yl)-3-(4-methyl-6-(methylsulfonyl)pyridin-3-ylamino)pyrrolidin-2-one]
cAMP production in HEK-293 cells: 9.0 nmol
Fold over baseline: 2.0

O=C1[C@@H](Nc2ccc(S(=O)(=O)C3CC3)nc2)CCN1C1CCN(c2ncc(Cl)cc2F)CC1 [Example 126, (S)-1-(1-(5-chloro-3-fluoropyridin-2-yl)piperidin-4-yl)-3-(6-(cyclopropylsulfonyl)pyri-din-3-ylamino)pyrrolidin-2-one]
cAMP production in HEK-293 cells: 10.4 nmol
Fold over baseline: 2.4

CCS(=O)(=O)c1ccc(N[C@H]2CCN(C3CCN(c4ncc(Cl)cc4F)CC3)C2=O)cn1 [Example 127, (S)-1-(1-(5-chloro-3-fluoropyridin-2-yl)piperidin-4-yl)-3-(6-(ethylsulfonyl)pyridin-3-ylamino)pyrrolidin-2-one]
cAMP production in HEK-293 cells: 13.0 nmol
Fold over baseline: 2.7

CCS(=O)(=O)c1ccc(N[C@H]2CCN(C3CCN(c4cnc(Cl)cn4)CC3)C2=O)cn1 [Example 128, (S)-1-(1-(5-chloropyrazin-2-yl)piperidin-4-yl)-3-(6-(ethylsulfonyl)pyridin-3-ylamino)pyrrolidin-2-one]
cAMP production in HEK-293 cells: 16.6 nmol
Fold over baseline: 3.4

CCS(=O)(=O)c1ccc(N[C@H]2CCN(C3CCN(c4ncc(Cl)cc4C#N)CC3)C2=O)cn1 [Example 129, (S)-5-chloro-2-(4-(3-(6-(ethylsulfonyl)pyridin-3-ylamino)-2-oxopyrrolidin-1-yl)piperidin-1-yl)nicotinonitrile]
cAMP production in HEK-293 cells: 28.4 nmol
Fold over baseline: 2.1

CS(=O)(=O)c1ccc(N[C@H]2CCN(C3CCN(c4ncc(Cl)cc4F)CC3)C2=O)cn1 [Example 130, (S)-1-(1-(5-chloro-3-fluoropyridin-2-yl)piperidin-4-yl)-3-(6-(methylsulfonyl)pyridin-3-ylamino)pyrrolidin-2-one]
cAMP production in HEK-293 cells: 26.8 nmol
Fold over baseline: 3.5
